The text below walks through data of the supplement of paper PMC7801607.

Broadly, the pIC50 is the IC50 on a negative log10 scale, so that one unit is a factor of ten. One may read the CC50 as the concentration giving 50% cytotoxicity.

For assay [1], the system named is Plasmodium berghei ANKA liver stage in HepG2-A16-CD81.
In assay [2] the test system is Plasmodium falciparum Dd2 asexual blood stage.
Assay [3] relates to Plasmodium falciparum NF54 asexual blood stage.
For assay [4], the system named is Plasmodium falciparum NF54 stage IV/V gametocytes. As to the method:
(§1)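 Dose-response IC50s: P. falciparum NF54 asexual (pLDH, 72 h; 6 means >6 µM), Dd2 asexual (SYBR Green I, 72 h, 1536-well; 5 means >5 µM), NF54 stage IV/V gametocytes (luciferase 48 h, ATP 24 h, PrestoBlue 48 h), P. berghei liver stage in HepG2-A16-CD81 (luciferase, 48 h; 5 means >5 µM), HepG2 CC50 (CellTiter-Glo; 5 means >5 µM).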

Assay [5] shares this test system. As to the method:
as §1
This is another data set of the same source.

A further assay concerns HepG2-A16-CD81. The experiment in a line: CC50; higher = less toxic. As to the method:
as §1

pIC50: −log10 of the molar value. Bounds are passed on as bounds.

As to `CCN(CC)CCn1c(=N)n(CC(O)COc2ccc(Cl)cc2Cl)c2ccccc21` (configuration not stated), the pIC50 in assay [1] is under 5.30; in assay [2], 6.10; in assay [3] it was 6.17. For the same compound, the “IC50 (ATP bioluminescence)” value in assay [4] was determined as 0.35 µM. Also, the “IC50 (luciferase reporter)” value in assay [5] stood at 3.8 µM. Besides, in the assay on HepG2-A16-CD81, the half-maximal cytotoxic concentration (CC50) is over 5 µM.
The compound `C[Si]1(C)CCN(Cc2cc(-c3ccc(Cl)cc3)n(-c3ccc(Cl)cc3)n2)CC1` gave a negative-log IC50 (pIC50) in assay [3] of under 5.22. Further, the “IC50 (ATP bioluminescence)” value in assay [4] worked out at 1.29 µM.
For the compound `O=C(/C(=C/c1ccc(Cl)cc1Cl)n1ccnc1)c1ccc(Cl)cc1`, the pIC50 is 5.48 in assay [2] and 5.58 in assay [3]. For the same compound, in assay [4], the “IC50 (ATP bioluminescence)” value came to 0.824 µM. In assay [5], the “IC50 (luciferase reporter)” value came to 7.08 µM.
`Oc1c(C(Nc2nc3ccccc3s2)c2ccc(OC(F)F)cc2)ccc2cccnc12` (configuration not stated): the pIC50 in assay [2] was 5.50; in assay [3], 5.78. Moreover, the “IC50 (luciferase reporter)” value in assay [5] was determined as 5.4 µM.
As for `Nc1nc(Nc2ccc3nc(-c4ccc(F)cc4)cc(N)c3c2)cc(-c2ccccc2)n1`, the negative logarithm of the IC50 (pIC50) in assay [1] was under 5.30; in assay [2] it was 7.26; in assay [3], 7.31. Besides, the “IC50 (ATP bioluminescence)” value in assay [4] is 0.0799 µM. For the same compound, in assay [5], the “IC50 (luciferase reporter)” value came to 0.152 µM. This compound also yielded a half-maximal cytotoxic concentration (CC50) in the assay on HepG2-A16-CD81 of over 5 µM.
Take `COC1CC2CCC(C)C(O)(O2)C(=O)C(=O)N2CCCCC2C(=O)OC(C(C)CC2CCC(OCCO)C(OC)C2)CC(=O)C(C)/C=C(\C)C(O)C(OC)C(=O)C(C)CC(C)/C=C/C=C/C=C/1C` (configuration not stated): the values for the pIC50 in assay [1] and in assay [2] were under 5.30 and 5.69, respectively. Also, in the assay on HepG2-A16-CD81, the CC50 was over 5 µM.
Take `CN1CCN(Cc2ccc(-c3cnc4[nH]cc(-c5ccc6[nH]ccc6c5)c4c3)cc2)CC1`: the figures for the pIC50 in assay [1], in assay [2] and in assay [3] were 5.60, 5.72 and 5.86, respectively. The “IC50 (ATP bioluminescence)” value in assay [4] was determined as 1.66 µM. In the assay on HepG2-A16-CD81, this compound came in with a 50% cytotoxic concentration (CC50) of over 5 µM.
On to `N#Cc1c(F)c(Cl)c(NCc2ccccc2)c(C#N)c1F`, for which the negative logarithm of the IC50 (pIC50) was under 5.30 in assay [2] and under 5.22 in assay [3]. For the same compound, the “IC50 (luciferase reporter)” value in assay [5] worked out at 31.6 µM.
As to `NC(=S)N/N=C/c1ncccc1N`, the figures for the pIC50 in assay [1], in assay [2] and in assay [3] were 6.19, 5.89 and 5.79, respectively. Further, the CC50 with HepG2-A16-CD81 is over 5 µM.
For `Cn1cc(NC(=O)c2cc(NC(=O)c3ccc(/C=C/c4cnc5ccccc5c4)cc3)cn2C)cc1C(=O)NCCN1CCOCC1`, the pIC50 in assay [1] is 5.70; in assay [2] it was 7.16; in assay [3], 7.21. In addition, the “IC50 (luciferase reporter)” value in assay [5] came to 0.103 µM. Also, in the assay on HepG2-A16-CD81, the CC50 is over 5 µM.
In assay [2], `CC(C)=CCC/C(C)=C/CNCCNC1C2CC3CC(C2)CC1C3` (configuration not stated) gave a pIC50 of under 5.30. In assay [4], the “IC50 (ATP bioluminescence)” value came to 0.474 µM.
On to `Cc1nc2ccc(Oc3ccccc3)cc2c2c1CCN2CCc1ccccc1`, for which the pIC50 in assay [2] is under 5.30; in assay [3], 5.52. Besides, the “IC50 (ATP bioluminescence)” value in assay [4] was 1.13 µM. Besides, the “IC50 (luciferase reporter)” value in assay [5] was determined as 46.3 µM.
Turning to `NCC(=O)Nc1ccc(-n2nc(C(F)(F)F)cc2-c2ccc3c(ccc4ccccc43)c2)cc1`, the negative-log IC50 (pIC50) in assay [2] is under 5.30. Also, the “IC50 (ATP bioluminescence)” value in assay [4] is 1.2 µM.
Consider `C(=C\c1nc2ccccc2[nH]1)/c1ccc2c(c1)OCO2`, for which the pIC50 in assay [2] is under 5.30. For the same compound, in assay [5], the “IC50 (luciferase reporter)” value turned out to be 3.92 µM.
In assay [2], `CC(C)c1ccc(COc2cccc(-c3cc(S(C)=O)c(C#N)c(=O)[nH]3)c2)cc1` (configuration not stated) had a pIC50 of under 5.30. Further, in assay [4], the “IC50 (ATP bioluminescence)” value was determined as 0.95 µM.
For the compound `O=C(Nc1cccc(C2=NCCN2)c1)c1ccc(-c2ccc(C(=O)Nc3cccc(C4=NCCN4)c3)cc2)cc1`, the pIC50 in assay [1] was under 5.30; in assay [2] it was 7.71; in assay [3] it was 7.35. Further, the “IC50 (luciferase reporter)” value in assay [5] is 0.48 µM. In addition, in the assay with HepG2-A16-CD81, the half-maximal cytotoxic concentration (CC50) is over 5 µM.
For the compound `COc1cc(NS(=O)(=O)c2ccc(C)cc2)c2ncccc2c1`, the pIC50 in assay [2] is under 5.30. Further, the “IC50 (ATP bioluminescence)” value in assay [4] amounted to 2.75 µM.
As to `CC(C)/N=c1\cc2n(-c3ccc(Cl)cc3)c3ccccc3nc-2cc1Nc1ccc(Cl)cc1`, the negative-log IC50 (pIC50) in assay [1] is under 5.30; in assay [2], 5.55; in assay [3], 6.06. Also, the 50% cytotoxic concentration (CC50) in the assay on HepG2-A16-CD81 is over 5 µM.
Consider `CN1CCN(c2ccc3[nH]c(-c4ccc5[nH]c(-c6ccc(O)cc6)nc5c4)nc3c2)CC1`, for which the pIC50 was under 5.30 in assay [1], 7.66 in assay [2] and 6.83 in assay [3]. The CC50 in the assay with HepG2-A16-CD81 is over 5 µM.
Take `C[C@@H](NC(=O)c1cccc(-c2c[nH]c(-c3cc4ccccc4cn3)n2)c1)c1ccc(F)cc1`: the pIC50 in assay [2] was under 5.30. For the same compound, in assay [4], the “IC50 (ATP bioluminescence)” value worked out at 1.1 µM.
`O=C(Nc1ccc(F)cc1)c1nn(-c2ccccc2)c(=O)cc1Cl` showed a negative-log IC50 (pIC50) in assay [2] of under 5.30. The “IC50 (luciferase reporter)” value in assay [5] amounted to 30.6 µM.
As to `Cc1cccc(C)c1C(=O)Nc1nc(-c2ccccn2)cc2ccccc12`, the pIC50 is under 5.30 in assay [2] and under 5.22 in assay [3]. For the same compound, the “IC50 (ATP bioluminescence)” value in assay [4] turned out to be 0.496 µM. Besides, the “IC50 (luciferase reporter)” value in assay [5] came out at 4.03 µM.
Turning to `CN(C)CCCNC(=O)c1ccc(-c2cc(O)c3ncccc3c2)cc1`, the figures for the pIC50 in assay [2] and in assay [3] were under 5.30 and under 5.22, respectively. The “IC50 (ATP bioluminescence)” value in assay [4] amounted to 0.62 µM.
`Cc1[nH]c2ccccc2c1CCNCc1ccc(/C=C/C(=O)NO)cc1`: the pIC50 in assay [1] was 7.25; in assay [2] it was 8.15; in assay [3], 7.23. Besides, in the assay on HepG2-A16-CD81, the CC50 turned out to be 0.141 µM.
Consider `CC(C)Oc1ccc(-c2nc(-c3cccc4c3CC[C@@H]4NCCO)no2)cc1C#N`, for which the figures for the pIC50 in assay [2] and in assay [3] were 5.44 and under 5.22, respectively. The “IC50 (ATP bioluminescence)” value in assay [4] turned out to be 2.13 µM.
Consider `Clc1ccc(Cn2c(CN3CCCC3)nc3ccccc32)cc1`, for which the pIC50 in assay [2] is under 5.30. Further, the “IC50 (ATP bioluminescence)” value in assay [4] was 5.86 µM.
For the compound `N=C(N)NCCCCC(=O)Nc1cc(C(F)(F)F)cc(NC(=O)c2cc(C(=O)Nc3cc(C(F)(F)F)cc(NC(=O)CCCCNC(=N)N)c3O[C@@H]3CCNC3)ncn2)c1O[C@@H]1CCNC1`, the pIC50 was 5.47 in assay [2] and 5.66 in assay [3]. Also, in assay [5], the “IC50 (luciferase reporter)” value came to 6.07 µM.
`CCOc1ccc(C(=O)NCCc2ccccc2)cc1` showed a pIC50 in assay [2] of under 5.30. For the same compound, the “IC50 (luciferase reporter)” value in assay [5] worked out at 11.4 µM.
For `CCOC(=O)Nc1cc(NC(C)CC(C)CN(CC)CC)c2nc(-c3ccccc3)c(-c3ccccc3)nc2n1` (configuration not stated), in assay [2], the pIC50 was 5.39. Also, in assay [4], the “IC50 (ATP bioluminescence)” value was 4.26 µM. Also, the “IC50 (luciferase reporter)” value in assay [5] stood at 28.6 µM.
As to `Nc1c(C(=O)NCc2ccco2)c2nc3ccccc3nc2n1CCN1CCCCC1`, the pIC50 is under 5.30 in assay [2] and under 5.22 in assay [3]. In assay [4], the “IC50 (ATP bioluminescence)” value was 3.16 µM.
As for `O=C1C=C(c2ccccc2)S(=O)(=O)c2ccccc21`, the negative logarithm of the IC50 (pIC50) in assay [2] is under 5.30. In addition, the “IC50 (ATP bioluminescence)” value in assay [4] was determined as 2.16 µM. For the same compound, the “IC50 (luciferase reporter)” value in assay [5] is 25.7 µM.
On to `Fc1ccc2c(/C=C/c3cccnc3)c[nH]c2c1`, for which the results for the pIC50 in assay [1] and in assay [2] were under 5.30 and 5.99, respectively. The compound also showed a cytotoxic concentration (CC50) with HepG2-A16-CD81 of over 5 µM.
As for `O=c1cc(NCCCN[C@@H]2CCOc3c(Br)cc(Br)cc32)[nH]c2ccsc12`, the values for the negative logarithm of the IC50 (pIC50) in assay [1] and in assay [2] were 5.76 and 5.79, respectively. The compound also yielded a CC50 in the assay with HepG2-A16-CD81 of over 5 µM.
As for `CC(C)(C)c1ccc(Oc2ccc(N)cc2)cc1`, the pIC50 in assay [2] is under 5.30. In addition, in assay [5], the “IC50 (luciferase reporter)” value turned out to be 1.08 µM.
In the case of `CN(C)CCCOc1ccc(-c2ccc3ncc4c(c3c2)n(C2CCOCC2)c(=O)n4C)cn1`, the figures for the pIC50 in assay [1], in assay [2] and in assay [3] were 5.98, 6.11 and 5.40, respectively. Further, the “IC50 (luciferase reporter)” value in assay [5] is 1.67 µM. In the assay with HepG2-A16-CD81, this compound came in with a CC50 of over 5 µM.
In the case of `Oc1cccc(C(Nc2nccs2)c2ccc3cccnc3c2O)c1` (configuration not stated), the pIC50 in assay [2] was under 5.30; in assay [3], 5.46. Further, the “IC50 (ATP bioluminescence)” value in assay [4] was 5.02 µM. Besides, the “IC50 (luciferase reporter)” value in assay [5] came to 15.9 µM.
`CCc1nc(N)nc(N)c1C#CC(C)c1cc(OC)cc(-c2ccncc2)c1` (configuration not stated): the pIC50 is 8.37 in assay [1], 5.76 in assay [2] and 8.77 in assay [3]. The CC50 with HepG2-A16-CD81 is over 5 µM.
With `CCN(CC)CCCC(C)Nc1ccnc2cc(Cl)ccc12` (configuration not stated), the negative-log IC50 (pIC50) in assay [1] is under 5.30; in assay [2], 7.30; in assay [3], 7.52. This compound also gave a CC50 with HepG2-A16-CD81 of over 5 µM.
As for `COc1nc2ccc(Br)cc2cc1[C@@H](c1ccccc1)[C@@](O)(CCN(C)C)c1cccc2ccccc12`, the pIC50 is under 5.30 in assay [1], 5.69 in assay [2] and under 5.22 in assay [3]. Also, the CC50 with HepG2-A16-CD81 was over 5 µM.
Consider `CC[C@@]1(O)C(=O)OCc2c1cc1n(c2=O)Cc2cc3c([N+](=O)[O-])cccc3nc2-1`, for which the pIC50 in assay [1] was 5.45; in assay [2], 5.35. Besides, in the assay on HepG2-A16-CD81, the CC50 was over 5 µM.
As for `COc1cc(NCc2ccc3nc(N)nc(N)c3c2C)cc(OC)c1OC`, the pIC50 in assay [1] was 9.28; in assay [2] it was 6.97. Further, the CC50 in the assay with HepG2-A16-CD81 amounted to 1.66 µM.
